# Results from patent US12371453B2, “Polypeptide having antibacterial activity, composition for preventing or treating sepsis comprising same, and antibacterial composition” (priority 2019, dated 2025).
# Square brackets hold non-standard residues; d marks the D form. Ends that are not written are not given here. Peptide text beside a SMILES is read from it.
# Legend:
# [1] = Calcein dye leakage from liposome mimicking human red blood cell membrane; format: biochemical; details: calcein-encapsulated liposome
# Procedure: (§1) To study an action mechanism for FP12-NH2, FP13-NH2, allD FP12-NH2, and allD FP13-NH2 peptides, the disruption ability of the peptides against liposomes mimicking a bacterial cell membrane and a red blood cell membrane was measured.
# (§2) EYPG is an abbreviation for egg yolk L-α-phosphatidyl-DL-glycerol, and EYPC is an abbreviation for egg yolk 1,2-diacyl-sn-glycero-3-phosphocholine. CH is an abbreviation for cholesterol. After dissolving the phospholipids composed according to the content of each component in chloroform, the chloroform was removed using a rotary evaporator, and lyophilization was performed overnight. Afterward, the dried lipid film was dissolved in a Tris-buffer solution, and calcein […]. After repeated freezing and thawing, the calcein-encapsulated liposome was manufactured using an extruder. Subsequently, after an excitation wavelength of a spectrofluorimeter (Shimadzu RF 5301 PC spectrofluorimeter, Japan) was set to 490 nm, and an emission wavelength was set to 520 nm, the peptide was administered to the liposome to measure relative dye leakage, provided that a 100% dye leakage was expressed as fluorescence intensity when 0.010% Triton-X100 was added.
# (§3) The upper graphs of FIG. 3 show the % dye leakage for an EYPC/EYPG (7:3, w/w) liposome mimicking bacterial cells, encapsulating a fluorescent dye, calcein, by a peptide according to a peptide concentration. […] The lower graphs of FIG. 3 show the % dye leakage for an EYPC/CH (10:1, w/w) liposome, which is […] mimicking a human red blood, encapsulating a fluorescent dye, calcein, by a peptide according to a peptide concentration.
# [2] = tested on: Carbapenem resistant (CR)-Acinetobactor baumannii; test: organism not typed
# Procedure: (§4) The antibacterial activity was evaluated according to an antibacterial activity test method for measuring the minimum inhibitory concentration 50 (MIC50; the minimal concentration that kills 50% of bacteria).
# (§5) More specifically, 100 μL of a medium was dispensed into each well of a 96-well plate, and in the first column, an antibiotic and a peptide in 200 μL of the medium were dispensed. 1/2 serial dilution was performed from columns 1 to 11 and five types of antibiotic-resistant bacteria (ESBL-resistant E. coli, carbapenem-resistant A. baumannii, carbapenem-resistant Klebsiella pneumoniae, carbapenem-resistant Pseudomonas aeruginosa, colistin-resistant Acinetobactor baumannii), which had been previously cultured, were diluted (OD600 nm value in dilution: approximately 0.0025) and dispensed into each well. The plate was incubated in a 37° C. incubator for 4 hours, and measured at OD600 nm.
# E. coli = format: cell-based
# [3] = Calcein dye leakage from liposome mimicking gram-negative bacterial cell membrane; format: biochemical; details: calcein-encapsulated liposome
# Procedure: as §1, §2, §3
# [4] = tested on: trypsin, protease K, and chymotrypsin; details: read out by antibacterial activity
# A. baumannii = format: cell-based
# [5] = LPS binding affinity by Isothermal Titration Calorimeter (ITC); design: species or system E. coli K1; details: for LPS binding affinity (in words): compared with FP1 (wild type, WT); for Kd: peptide binding to LPS, read-out: Kd (calculated by ITC)
# Description: FPT (ADK 44-54) is denoted by wild type (WT), and peptides in which a point mutation occurred at various sites in WT were manufactured (FP3, FP5, FP6, and FP9). To increase the interaction with LPS in a residue sequence of FP3, peptides were designed based on FP3- and LPS-binding models (FP12-NH2 and FP13-NH2), and peptides were designed by additionally introducing a non-natural amino acid and an amino acid isomer (allomeric D-type amino acid) (allD FP12-NH2, allD FP13-NH2, allD FP-13-9a, allD FP-13-9w, allD FP-13-9k, and allD FP13-NH2 (AcOH)). In addition, an N-terminus PEGylated peptide (PEG-alld FP13-NH2 (AcOH)) was additionally designed, synthesized, and provided by ANYGEN, Co. Ltd. The binding affinity between each of the provided peptides and lipopolysaccharide (LPS) was confirmed through measuring the binding affinity (Kd) using Isothermal Titration Calorimeter (ITC).
# Specifically, a method of analyzing binding affinity (Kd) between a peptide and LPS is as follows.
# Measurement was carried out using a Malvern MicroCal PEAQ-ITC cell instrument, and the following pretreatment was carried out to confirm interaction with LPS. The amount and morphology of a sample cell are 300 μL and coin-shaped, fixed-in-place, respectively; a syringe rotation rate was 1,200 rpm; and a temperature was 30° C., 35° C. or 25° C.
# Before the experiment, LPS and the peptide were previously diluted with PBS, thereby preparing 2 mM LPS and 0.2 mM peptide. 300 μL of the peptide was added into cells in the ITC instrument, which had been washed, and 40 μL of LPS was put into a syringe. After measurement conditions for ITC (temperature, number of injections) were set, the syringe was inserted into the cell, and ITC measurement was started. When the measurement was completed, analysis is performed, and the Kd values of LPS and the peptide were calculated.
# [6] = Calcein dye leakage from liposome mimicking gram-positive bacterial cell membrane; format: biochemical; details: calcein-encapsulated liposome
# Procedure: To study the action mechanisms for FPT2-NH2, FPT3-NH2, allD FPT2-NH2, and allD FP13-NH2 peptides, the disruption ability of the peptides against a liposome mimicking a bacterial cell membrane was measured.
# [7] = tested on: Colistin resistant AB (Acinetobactor baumannii)
# Procedure: as §4, §5
# ESBL (E. coli) = details: ESBL
# Procedure: as §4, §5
# CR-Klebsiella pneumoniae = details: CR-
# Procedure: as §4, §5
# [8] = In vivo toxicity, survival rate (Example 9); design: species or system ICR mice; details: mouse, ip, mice, intraperitoneal six times, survival for 72 hours
# Procedure: To confirm the therapeutic and pharmaceutical effects of an acetate salt substitution of allD FP13-NH2, a septic animal model induced by intraperitoneally administering each of the Escherichia coli (standard strain and ESBL) strains or a normal mouse was treated with the peptide allD FP13-NH2 (AcOH). The antibiotic effect, the toxicity, and the inhibitory activity of […] cytokine IL-6 of the salt substitution with those of the same peptide at the end of trifluoroacetic acid (TFA) were compared.
# Six-week-old female ICR mice (SPF mice, Samtako) with an average body weight of 25 g were used as experimental animals. The experimental animals were provided with sterile feed and water and bred with less than 10 mice per cage, and a day/night cycle was 12 hours.
# To evaluate in vivo toxicity, the mice were divided into groups (n=5 or 6 per group) per experiment, and intraperitoneally treated six times with allD FP13-NH2 (TFA) and allD FP13-NH2 (AcOH) mixed with […]'S DEX solution (vehicle) at 0, 1, 2, 3, 4, or 5 hours, followed by observing a survival rate at intervals of 12 hours for 72 hours.
molecule,measurement,setting,value
CC(C)C[C@@H](NC(=O)[C@H](N)CCCNC(=N)N)C(=O)N[C@H](CCCNC(=N)N)C(=O)N[C@@H](C(=O)N[C@H](CCCCN)C(=O)N[C@H](CC(C)C)C(=O)N[C@H](CCCNC(=N)N)C(=O)N[C@H](CCCNC(=N)N)C(=O)N[C@H](Cc1ccc(O)cc1)C(=O)N[C@H](CC(C)C)C(=O)N[C@H](CCCNC(=N)N)C(N)=O)C(C)C [allD FP12-NH2] (H-[dR][dL][dR][dV][dK][dL][dR][dR][dY][dL][dR]-NH2; N-terminus assumed),"dye leakage, PC/CH liposome mimicking a red blood cell membrane",[1],almost no dye leakage
same,"MIC50, Carbapenem resistant (CR)-Acinetobactor baumannii",[2],<4 mg/L
same,MIC50,S. aureus,4 µM
same,MIC90,S. aureus,8 µM
same,MIC50,E. coli,2 µM
same,MIC90,E. coli,4 µM
same,"dye leakage, PC/PG (7:3, w/w) liposome mimicking a bacteria cell membrane",[3],high dye leakage
same,resistance to the proteolytic enzyme,[4],much improved resistance
same,MIC50,A. baumannii,4 µM
same,MIC90,A. baumannii,8 µM
same,LPS binding affinity (in words),[5],strong LPS binding affinity
same,Kd,[5],26.6 µM
same,"dye leakage, EYPG/EYPC (6:4, w/w) liposome mimicking gram-positive bacterial cell membrane",[6],high dye leakage
same,"MIC50, Colistin resistant AB",[7],<16 mg/L
same,"MIC50, ESBL (E. coli)",ESBL (E. coli),<0.5 mg/L
same,"MIC50, CR-Klebsiella pneumoniae",CR-Klebsiella pneumoniae,<32 mg/L
CC(C)C[C@@H](NC(=O)[C@H](N)CCCCN)C(=O)N[C@H](CCCNC(=N)N)C(=O)N[C@@H](C(=O)N[C@H](CCCCN)C(=O)N[C@H](CC(C)C)C(=O)N[C@H](CCCNC(=N)N)C(=O)N[C@H](CCCNC(=N)N)C(=O)N[C@H](Cc1ccc(O)cc1)C(=O)N[C@H](CC(C)C)C(=O)N[C@H](CCCNC(=N)N)C(N)=O)C(C)C [allD FP13-NH2 (AcOH)] (H-[dK][dL][dR][dV][dK][dL][dR][dR][dY][dL][dR]-NH2; N-terminus assumed),"MIC50, Carbapenem resistant (CR)-Acinetobactor baumannii",[2],<1 mg/L
same,LD50,[8],80 mg/kg
same,"MIC50, Colistin resistant AB",[7],<16 mg/L
same,"MIC50, ESBL (E. coli)",ESBL (E. coli),<1 mg/L
same,"MIC50, CR-Klebsiella pneumoniae",CR-Klebsiella pneumoniae,<32 mg/L
KLRVKLRRYLR-NH2 [FP13-NH2],"dye leakage, PC/CH liposome mimicking a red blood cell membrane",[1],almost no dye leakage
same,"MIC50, Carbapenem resistant (CR)-Acinetobactor baumannii",[2],<8 mg/L
same,"dye leakage, PC/PG (7:3, w/w) liposome mimicking a bacteria cell membrane",[3],high dye leakage
same,LPS binding affinity (in words),[5],strong LPS binding affinity
same,Kd,[5],118 µM
same,"dye leakage, EYPG/EYPC (6:4, w/w) liposome mimicking gram-positive bacterial cell membrane",[6],high dye leakage
same,"MIC50, Colistin resistant AB",[7],<32 mg/L
same,"MIC50, ESBL (E. coli)",ESBL (E. coli),<1 mg/L
same,"MIC50, CR-Klebsiella pneumoniae",CR-Klebsiella pneumoniae,<16 mg/L
RLRVKLRRYLR-NH2 [FP12-NH2],"dye leakage, PC/CH liposome mimicking a red blood cell membrane",[1],almost no dye leakage
same,"MIC50, Carbapenem resistant (CR)-Acinetobactor baumannii",[2],<4 mg/L
same,"dye leakage, PC/PG (7:3, w/w) liposome mimicking a bacteria cell membrane",[3],high dye leakage
same,LPS binding affinity (in words),[5],strong LPS binding affinity
same,Kd,[5],0.242 µM
same,"dye leakage, EYPG/EYPC (6:4, w/w) liposome mimicking gram-positive bacterial cell membrane",[6],high dye leakage
same,"MIC50, Colistin resistant AB",[7],<16 mg/L
same,"MIC50, ESBL (E. coli)",ESBL (E. coli),<0.5 mg/L
same,"MIC50, CR-Klebsiella pneumoniae",CR-Klebsiella pneumoniae,<8 mg/L
